US20250099487A1, “COMPOSITION FOR PREVENTING OR TREATING PULMONARY FIBROSIS, COMPRISING TAURODEOXYCHOLIC ACID OR PHARMACEUTICALLY ACCEPTABLE SALT THEREOF AS ACTIVE INGREDIENT” (SHAPERON INC., priority 2022, published 2025)
Each block holds one compound with its values, some of them ahead of it.

Legend:
[1] = Body weight changes in bleomycin-induced idiopathic pulmonary fibrosis animal model; assay type: in vivo, C57BL/6 mice; details: HY209 administration group vs control group; oral BID Day 7-Day 21; measured daily
Protocol: (§1) Specifically, 9-week-old C57BL/6 mice were purchased and allowed to adapt to their environment for one week before the experiment was conducted. The experimental animals were maintained under conditions of 22±2° C., 55±10% relative humidity, and a 12-hour light/dark cycle. Water was provided ad libitum, and sterilized feed was used, allowing free access to food.
(§2) The pulmonary fibrosis group was orally administered a vehicle (0.5% CMC (carboxymethylcellulose) solution) at a dose of 10 mL/kg twice daily, while the experimental group was orally administered HY209 formulated in a 0.5% CMC solution to achieve final concentrations of 10, 30, and 60 mg/kg, also twice daily. The comparison group (Nintedanib administration group) was orally administered Nintedanib, formulated in a vehicle (0.1% Natrosol; Hydroxyethylcellulose solution) to achieve a final concentration of 60 mg/kg, twice daily. The pulmonary fibrosis group (Natrosol administration group) for comparison with the Nintedanib administration group received 10 mL/kg of 0.1% Natrosol solution orally twice daily. The control group was administered saline instead of bleomycin and received a vehicle (0.5% CMC (carboxymethylcellulose) solution) at a dose of 10 mL/kg orally twice daily.
Specifically, the body weight of the mice in each group was measured daily throughout the course of the experiment.

[2] = test system: bleomycin-induced idiopathic pulmonary fibrosis animal model; test: Lung weight changes in bleomycin-induced idiopathic pulmonary fibrosis animal model; assay type: in vivo, C57BL/6 mice
Protocol: Specifically, 9-week-old C57BL/6 mice were purchased and allowed to adapt to their environment for one week before the experiment was conducted. […] Water was provided ad libitum, and sterilized feed was used, allowing free access to food. […] The control group was administered saline instead of bleomycin and received a vehicle (0.5% CMC (carboxymethylcellulose) solution) at a dose of 10 mL/kg orally twice daily. Specifically, the mice in each group were sacrificed upon completion of the experiment, and their lungs were excised. The weights of the excised lungs were then measured.

[3] = test system: bleomycin-induced idiopathic pulmonary fibrosis animal model; test: Histopathological evaluation of pulmonary fibrosis (Crossman's Trichrome, Matsuse modification of the Ashcroft score); assay type: in vivo, C57BL/6 mice
Protocol: Specifically, 9-week-old C57BL/6 mice were purchased and allowed to adapt to their environment for one week before the experiment was conducted. […] Water was provided ad libitum, and sterilized feed was used, allowing free access to food. […] The control group was administered saline instead of bleomycin and received a vehicle (0.5% CMC (carboxymethylcellulose) solution) at a dose of 10 mL/kg orally twice daily. Specifically, the mice in each group were sacrificed upon completion of the experiment, and their lungs were excised. The excised lungs were embedded in paraffin for histopathological evaluation and stained according to the Crossman's Trichrome method (Gray P. The Microtomist's Formulary and Guide. Published by Robert E. Krieger Publishing Co.). The histological changes in the lungs were assessed using the Matsuse modification of the Ashcroft score, as presented in Table 2 (Ashcroft H et al. J Clin Pathol (1988) 41:467-70; Matsuse T et al. Eur Respir J (1999) 13:71-77). [table]

[4] = test system: α-SMA; test: Immunohistochemical analysis of α-SMA area in lung tissue; assay type: in vivo, C57BL/6 mice
Protocol: as §1, §2
Specifically, the mice in each group were sacrificed upon completion of the experiment, and their lungs were excised. The excised lungs were embedded in paraffin for histopathological evaluation, and sections were obtained and mounted onto slides. Subsequently, the expression distribution of the fibrosis-related factor α-SMA in the lung tissue was evaluated.
Immunohistochemical analysis of α-SMA was performed using polyclonal anti-α-SMA antibodies. Antigen retrieval was conducted using Target Retrieval Solution pH 6 (PT Link module, DAKO). […] The de novo accumulation level of α-SMA was evaluated using digital image analysis software (Visiopharm®). The results were expressed as the percentage (%) of the α-SMA area.

[5] = test system: human lung fibroblast cell line MRC5; test: qPCR of fibrosis-related factors in TGF-β-treated MRC5 cells; assay type: cell-based; details: MRC5, TGF-β1 5 ng/mL, 48 hours
Protocol: Specifically, the human lung fibroblast cell line MRC5 was seeded at a density of 2×10^5 cells per well in a 6-well plate and incubated overnight to allow cell attachment. Subsequently, the medium was removed, and the cells were treated with TGF-β1 at a concentration of 5 ng/mL along with HY209 or TUDCA at concentrations of 0, 0.1, 1, and 10 μM, and cultured for 48 hours before collecting the cells. Following this, RNA was extracted from the cells using the RNeasy Mini Kit (QIAGEN), and cDNA was synthesized using Maxime™ RT PreMix (LiliF Diagnostic). qPCR measurements were conducted using Power SYBR™ Green PCR Master Mix (Thermo Scientific) in accordance with the manufacturer's instructions. Additionally, primers specific for Col1α1, α-SMA, and PAI-1 were utilized to assess their expression, and GAPDH was measured as the internal standard.

[6] = test system: IL-1β; test: Inhibition of IL-1β production in PMA-differentiated U937 macrophages induced with BzATP (ELISA); assay type: cell-based, human; details: for IC50: Homo sapiens, U-937, U937 macrophages, 12 h pretreatment, BzATP 300 μM 12 h
Protocol: (§3) To evaluate the anti-inflammatory efficacy of HY209 and TUDCA, the human monocytic cell line U937 was treated with PMA (phorbol 12-myristate 13-acetate) to induce differentiation into macrophages.
Specifically, the human monocytic cell line U937 was seeded at a density of 70,000 cells per well in a 96-well plate and cultured for 24 hours in RPMI1640 medium containing 50 nM PMA (phorbol 12-myristate 13-acetate) to induce differentiation into macrophages. The medium was then removed from each well, and HY209 or TUDCA was administered at varying concentrations (HY209: 1, 0.5, 0.25, 0.125, 0.0625, 0.0312, 0.0156, 0.0078 μM; TUDCA: 1000, 316, 100, 31.6, 10, 3.16, 0.316, 0.1, 0.0316, 0.01, 0.00316 μM) for 12 hours. Subsequently, BzATP (2′(3′)-O-(4-Benzoylbenzoyl)adenosine 5′-triphosphate) was added to each well to achieve a final concentration of 300 μM, and the cells were incubated for an additional 12 hours. The supernatants were then collected, and IL-1β levels were measured using an IL-1β ELISA kit (R&D Systems) according to the manufacturer's instructions (FIG. 7a).

[7] = test system: TNF-α; test: Inhibition of TNF-α production in PMA-differentiated U937 macrophages induced with Pam2CSK4 (ELISA); assay type: cell-based, human; details: for IC50: Homo sapiens, U-937, U937 macrophages, Pam2CSK4 50 ng/mL, 4 hours
Protocol: as §3
Additionally, the human monocytic cell line U937 was cultured at a density of 5×10^6 cells in a 100 mm dish containing RPMI1640 medium supplemented with 4 nM PMA (phorbol 12-myristate 13-acetate) for 5 hours to induce differentiation into macrophages. The differentiated macrophages were then seeded into a 96-well plate at a density of 50,000 cells per well and incubated for 24 hours to allow for rest. Following this, the medium was replaced with serum-free medium, and the cells were cultured for an additional 12 hours. The medium was then removed from each well, and the cells were treated with 50 ng/mL of Pam2CSK4 (Pam2CysSerLys4) along with HY209 or TUDCA at varying concentrations (HY209: 10, 4, 2, 1, 0.5, 0.25, 0.125, 0.0625, 0.03125 μM; TUDCA: 100, 50, 25, 12.5, 6.25, 3.125, 1.562, 0.76 μM) for 4 hours. The supernatants were then collected, and TNF-α levels were measured using a TNF-α ELISA kit (R&D Systems) according to the manufacturer's instructions (FIG. 7b).

[8] = 10 mg/kg oral BID Day 7-21, compared to the pulmonary fibrosis group
[9] = 60 mg/kg oral BID Day 7-21, compared to the pulmonary fibrosis group
[10] = 60 mg/kg oral BID Day 7-21, compared to the Natrosol administration group

IC50 for IL-1β, times lower than that of TUDCA ([6]; HY209 vs TUDCA): 34 times | IC50 [6]: 44 nM | IC50 for TNF-α, times lower than that of TUDCA ([7]; HY209 vs TUDCA): 36 times | IC50 [7]: 360 nM
SMILES: C[C@H](CCC(=O)NCCS(=O)(=O)O)[C@H]1CC[C@H]2[C@@H]3CC[C@@H]4C[C@H](O)CC[C@]4(C)[C@H]3C[C@H](O)[C@]12C [HY209, sodium taurodeoxycholate]
body weight changes [1]: no significant differences | lung weight [2, 8]: statistically significantly decreased | lung weight [2, 9]: statistically significantly decreased | pulmonary fibrosis (Ashcroft score) [3, 8]: statistically significantly decreased | pulmonary fibrosis (Ashcroft score) [3, 9]: statistically significantly decreased | α-SMA area ([4]; 10 mg/kg oral BID Day 7-21, compared to the pulmonary fibrosis group and the Natrosol administration group): significantly decreased | α-SMA area ([4]; HY209 60 mg/kg oral BID Day 7-21, compared to the pulmonary fibrosis group and the Natrosol administration group): significantly decreased | Col1α1 expression ([5]; 0.1 μM): reduced the expression | PAI-1 expression ([5]; 0.1 μM): inhibition | α-SMA expression ([5]; 0.1 μM): inhibition | Col1α1 expression ([5]; 1 μM): reduced the expression | PAI-1 expression ([5]; 1 μM): inhibition | α-SMA expression ([5]; 1 μM): inhibition | Col1α1 expression ([5]; 10 μM): reduced the expression | PAI-1 expression ([5]; 10 μM): inhibition | α-SMA expression ([5]; 10 μM): inhibition

SMILES: COC(=O)c1ccc2c(c1)NC(=O)/C2=C(\Nc1ccc(N(C)C(=O)CN2CCN(C)CC2)cc1)c1ccccc1 [Nintedanib, reference compound]
lung weight [2, 10]: significant decrease | pulmonary fibrosis (Ashcroft score) [3, 10]: significant reduction | α-SMA area ([4]; Nintedanib 60 mg/kg oral BID Day 7-21, compared to both the pulmonary fibrosis group and the Natrosol administration group): significant reduction

IC50 [6]: 1500 nM | IC50 [7]: 13100 nM
SMILES: C[C@H](CCC(=O)NCCS(=O)(=O)O)[C@H]1CC[C@H]2[C@@H]3[C@@H](O)C[C@@H]4C[C@H](O)CC[C@]4(C)[C@H]3CC[C@]12C [TUDCA, tauroursodeoxycholic acid, reference compound]
Col1α1 expression ([5]; 0.1 μM): increase in expression | PAI-1 expression ([5]; 0.1 μM): did not demonstrate inhibitory effects | α-SMA expression ([5]; 0.1 μM): did not demonstrate inhibitory effects | Col1α1 expression ([5]; 1 μM): increase in expression | PAI-1 expression ([5]; 1 μM): did not demonstrate inhibitory effects | α-SMA expression ([5]; 1 μM): did not demonstrate inhibitory effects | PAI-1 expression ([5]; 10 μM): inhibitory effects | α-SMA expression ([5]; 10 μM): inhibitory effects
